Results as given in patent publication US9844599B2, “Nitric oxide releasing produgs of therapeutic agents” (priority 2013, dated 2017).

How the values were obtained:
[1] = Stability of prodrugs at RT and at 50° C. (capped vials); assay type: physicochemical
[2] = Stability of prodrugs / release of parent drug in Simulated Gastric Fluid (SGF); assay type: in vitro ADME; conditions: for % of Prodrug remaining (μM): simulated gi fluid
Description: SGF was prepared according to the procedure described in Test Solution—USP. Thus, 0.2 g of sodium chloride and 0.32 g of purified pepsin (Sigma, derived from porcine stomach mucosa with an activity of 800 to 2500 units per mg of protein) were dissolved in 0.7 mL of hydrochloric acid and sufficient water to make 100 mL. This test solution has a pH of about 1.2 and was utilized for in-vitro studies.
(§1) The solution of the test compound in acetonitrile (10 μL of […] solution) was dissolved in 990 μL of biological fluid (SGF/SIF/Human Plasma). The resulting reaction mixtures were incubated at 37° C. At specified time intervals, aliquots (60 μL) were withdrawn and added to acetonitrile (200 μL) and mixed well by vortexing for 2 minutes. The mixture was centrifuged at 13000 rpm for 15 min at 4° C., and the supernatant analyzed by HPLC. The amounts (area percentages) of the remaining intact prodrug (if any) and the released metabolite(s) were estimated by HPLC.
(§2) This was performed by using HPLC instrument (Waters alliance), pump 2695, and PDA detector 2996 with the following chromatographic parameters: Wavelength −210 nm; Column-Waters X-Terra RP-18, 150×3.9 mm, 5 μm; Injection volume, 25 μL; Run time, 13 min. Mode of operation was linear gradient with mobile phase A: Acetonitrile and B: 0.1% TFA in water (filtered and degassed). Flow rate was 1.0 mL/min at 25° C.

[3] = Stability / release of aspirin in Simulated Intestinal Fluid (SIF); assay type: in vitro ADME; conditions: 1 mM concentration
Description: SIF was prepared according to the procedure described in Test Solution—USP. Thus, 0.68 g of monobasic potassium phosphate was dissolved in 25 mL of water followed by addition of 0.2N NaOH (7.7 mL) and water (50 mL). To this solution was added pancreatin (1 g) and mixed; the pH of the resulting solution was adjusted to about 6.8 with 0.2N HCl/0.2N NaOH and the solution, was diluted with water to 100 mL. The solution was utilized for in-vitro studies.
as §1
This was performed by using HPLC instrument (Waters alliance), pump 2695, and PDA detector 2996 with the following chromatographic parameters: Wavelength −210 nm; Column-Waters X-Terra RP-18, 150×3.9 mm, 5 μm; Injection volume, 25 μL; Run time, 13 min. Mode of operation was linear gradient with mobile phase A: Acetonitrile and B: 0.1% TFA in water (filtered and degassed). […]

[4] = Stability / release of aspirin and salicylic acid in human plasma; assay type: in vitro ADME; conditions: 100 μM, FIG. 11
Description: Human plasma was similarly obtained by processing the blood taken from healthy human male volunteers (age group 25-35 years) who had not consumed any NSAIDS one week prior to the collection of blood. This plasma was utilized for the in-vitro experiments.
as §1, §2

[5] = Acute gastric ulcerogenesis activity study; conditions: rats, acute oral; aspirin 100 mg/kg, I-D1-R1 298.85 mg/kg, naproxen 100 mg/kg, I-D2-R1 138.67 mg/kg
Description: The animals were sacrificed after 5 h of drug administration. The stomachs of the treated animals were separated, perfused with 2% formalin (10 mL), and a large curvature was excised. The severity of the mucosal damage was assessed on the basis of the size of the observed ulcer lesions in the images captured using a stereomicroscope attached to a digital camera (Stemi 2000, Zeiss, Germany). The Image Pro Plus software (version 5.1) was used to quantify the hemorrhagic/ulcer lesions in pixels and to convert them into mm^2. The total area of lesions was calculated for each treatment group and the measure of gastric ulcers (Mean±SEM) (mm^2) was estimated (FIGS. 5 and 6).

[6] = system: serum thromboxane B2 (TXB2) formation; assay: Inhibition of serum thromboxane B2 (TXB2) formation; assay type: in vivo, Sprague-Dawley (SD) rats; conditions: SD rats, 30 mg/kg aspirin or equimolar 44.82 mg/kg, p.o., o.d., 7 days
Description: Aspirin is used as an antiplatelet agent for the treatment of cardiovascular complications. […] It is therefore possible to achieve complete suppression of platelet. TXA2 (and also TXB2) formation via chronic administration of aspirin at a dose of 30 mg/daily (Patrignani, P., et al. J. Clin. Invest. 1982, 69, 1366-1372). The antiplatelet activity of aspirin (30 mg/kg) and its prodrug I-D1-R1 (at a dose equimolar to 30 mg/kg dose of aspirin) was evaluated in Sprague-Dawley (SD) rats through estimation of serum TXB2 levels (Esser, R. et al., Br. J. Pharmacol. 2006, 144, 538-550) and the experimental results are presented in FIG. 7.
In vivo TXB2 inhibition potential of aspirin and NO-aspirin prodrugs was assessed in Sprague-Dawley (SD) rats; the serum TXB2 levels were estimated according to the reported procedure (R. Esser, R., et al., Br. J. Pharmacol. 2006, 144, 538-550). Thus, vehicle, aspirin (30 mg/kg) or aspirin prodrug I-D1-R1 (44.82 mg/kg which is equivalent to 30 mg/kg dose of aspirin) were administered orally to the overnight fasted SD rats. […] The serum TXB2 concentrations were determined by enzyme immunoassay (EIA) using commercially available TXB2 estimation kit (Cayman Chemicals, USA), according to the method described in kit information booklet.

CC(=O)Oc1ccccc1C(=O)OC(C)O[N+](=O)[O-] (stereo not drawn) [I-D1-R1, 1-(nitrooxy)ethyl 2-acetoxybenzoate]
Asp (Aspirin) formed on storage ([1]; 50° C., 0 h): NIL
Prodrug (area %) on storage ([1]; 50° C., 0 h): 99.14%
SA (Salicylic acid) formed on storage ([1]; 50° C., 0 h): NIL
Prodrug (area %) on storage ([1]; 50° C., 1 m): 88.34%
SA (Salicylic acid) formed on storage ([1]; 50° C., 1 m): 0.6%
Asp (Aspirin) formed on storage ([1]; 50° C., 2 d): NIL
Prodrug (area %) on storage ([1]; 50° C., 2 d): 98.84%
SA (Salicylic acid) formed on storage ([1]; 50° C., 2 d): 0.1%
Asp (Aspirin) formed on storage ([1]; 50° C., 5 d): 0.3%
Prodrug (area %) on storage ([1]; 50° C., 5 d): 98.18%
SA (Salicylic acid) formed on storage ([1]; 50° C., 5 d): 0.14%
Degradation of prodrug on storage ([1]; 50° C., after 1 month): about 11%
Degradation of prodrug on storage ([1]; 50° C., after 5 days): ~1%
Asp (Aspirin) formed on storage ([1]; RT, 0 h): NIL
Prodrug (area %) on storage ([1]; RT, 0 h): 99.14%
SA (Salicylic acid) formed on storage ([1]; RT, 0 h): NIL
Asp (Aspirin) formed on storage ([1]; RT, 1 m): 0.13%
Prodrug (area %) on storage ([1]; RT, 1 m): 98.56%
SA (Salicylic acid) formed on storage ([1]; RT, 1 m): NIL
Asp (Aspirin) formed on storage ([1]; RT, 3 d): NIL
Prodrug (area %) on storage ([1]; RT, 3 d): 98.89%
SA (Salicylic acid) formed on storage ([1]; RT, 3 d): NIL
Asp (Aspirin) formed on storage ([1]; RT, 18 d): NIL
Prodrug (area %) on storage ([1]; RT, 18 d): 98.95%
SA (Salicylic acid) formed on storage ([1]; RT, 18 d): NIL
Stability on storage (in words) ([1]; RT, up to 1 month): very stable
Release of parent drug on incubation in SGF (in words) [2]: released quantitative amounts of the parent drug aspirin
% of Aspirin Released (μM) ([2]; 0 min, 1 µM, pH 1.2): 0%
AUC of aspirin (released / remaining) in SGF ([2]; 1 µM, pH 1.2): 10406 µM·h
Aspirin released in SGF, less than that of aspirin ([2]; 1 µM, pH 1.2): about 15%
% of Aspirin Released (μM) ([2]; 5 min, 1 µM, pH 1.2): 18%
% of Aspirin Released (μM) ([2]; 10 min, 1 µM, pH 1.2): 44%
% of Aspirin Released (μM) ([2]; 30 min, 1 µM, pH 1.2): 97%
% of Aspirin Released (μM) ([2]; 60 min, 1 µM, pH 1.2): 100%
% of Aspirin Released (μM) ([2]; 120 min, 1 µM, pH 1.2): 100%
% of Prodrug remaining (μM) ([2]; 0 h, 1 µM, pH 1.2): 91%
% of Prodrug remaining (μM) ([2]; 5 min, 1 µM, pH 1.2): 82%
% of Prodrug remaining (μM) ([2]; 10 min, 1 µM, pH 1.2): 56%
% of Prodrug remaining (μM) ([2]; 0.5 h, 1 µM, pH 1.2): 3%
% of Prodrug remaining (μM) ([2]; 1 h, 1 µM, pH 1.2): 0%
% of Prodrug remaining (μM) ([2]; 2 h, 1 µM, pH 1.2): 0%
Release of aspirin in SIF (in words) [3]: released significant amount of aspirin
Salicylic acid released in human plasma (in words) [4]: large and proportional amount
Development of gastric ulcers or lesions [5]: none of the animals
Inhibition of TXB2 formation [6]: 72.59%
